Source: article PMC5988755, “First characterization of a microsporidial triosephosphate isomerase and the biochemical mechanisms of its inactivation to propose a new druggable target” (Scientific Reports, 2018)

How the values were obtained:
[1] = target: T1, EiTIM (triosephosphate isomerase of E. intestinalis) (Encephalitozoon intestinalis, UniProt E0SA87); experiment: residual activity after incubation, alpha-GDH coupled assay (NADH, […] nm); assay type: biochemical; settings: read-out: 50% inactivation
T1 construct: gene Eint_110100; full length, synthetic codon-optimised gene (silent A479G) in pET-3aHisTEV, E. coli BL21(DE3)pLysS; N-terminal His-tag removed with TEV protease; homodimer
T1 sequence (E0SA87 1-242): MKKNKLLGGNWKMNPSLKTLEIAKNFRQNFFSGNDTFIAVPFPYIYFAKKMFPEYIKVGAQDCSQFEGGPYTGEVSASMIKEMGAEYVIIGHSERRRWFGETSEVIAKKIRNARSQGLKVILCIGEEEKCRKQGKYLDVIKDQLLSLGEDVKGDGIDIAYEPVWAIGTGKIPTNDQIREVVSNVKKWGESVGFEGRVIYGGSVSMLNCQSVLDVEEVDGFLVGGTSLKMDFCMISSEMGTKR

[2] = target: T1, EiTIM (triosephosphate isomerase of E. intestinalis); experiment: thermal denaturation by CD at […] nm of derivatized enzyme; assay type: binding; settings: covalent; 0.5 mM compound, 2 h at 37 °C, excess removed; untreated control Tm 52.8 ± 1.5 °C
[3] = target: T1, EiTIM (triosephosphate isomerase of E. intestinalis); experiment: residual activity after incubation, alpha-GDH coupled assay (NADH, […] nm); assay type: biochemical; settings: covalent; 0.5 mM compound, 2 h at 37 °C; residual activity relative to untreated control; 3 Cys derivatized per subunit
[4] = target: T1, EiTIM (triosephosphate isomerase of E. intestinalis); experiment: as above; assay type: biochemical; settings: covalent (Cys derivatization suggested), 0.5 mg/mL enzyme, 2 h at 37 °C, drug 0-50 μM
purified protein = substrate: O=C[C@H](O)COP(=O)(O)O; experiment: purified protein; settings: GAP to DHAP direction, 25 °C, 0.2 mM NADH, 0.9 U alpha-GDH, GAP 0.2-10 mM

CC(=C(CCOC(=O)C(C)C)SSC(CCOC(=O)C(C)C)=C(C)N(C=O)Cc1cnc(C)nc1N)N(C=O)Cc1cnc(C)nc1N (stereo in doubt) [sulbutiamine]
IC50 [1]: 2.5 µM

O=C(O)c1cc(SSc2ccc([N+](=O)[O-])c(C(=O)O)c2)ccc1[N+](=O)[O-] [DTNB, 5,5′-dithiobis(2-nitrobenzoic acid)]
IC50 [1]: 25 µM

CSS(C)(=O)=O [MMTS]
Tm (°C)^* [2]: 49.8 ± 2.1 °C | Activity (%)^* [3]: 17.3 ± 5.5%

CS(=O)(=O)SCCS(=O)(=O)O [MTSES, sodium (2-sulfonatoethyl) methanethiosulfonate]
Tm (°C)^* [2]: 48.6 ± 1.9 °C | Activity (%)^* [3]: 2.4 ± 1.1%

COc1ccc2[nH]c([S+]([O-])Cc3ncc(C)c(OC)c3C)nc2c1 (centres unmarked) [omeprazole]
50% inactivation ([4]; omeprazole pre-activated with acid (HCl, 3 h)): sulbutiamine was two- and three-fold more effective than rabeprazole and omeprazole, respectively

COCCCOc1ccnc(C[S+]([O-])c2nc3ccccc3[nH]2)c1C (centres unmarked) [rabeprazole]
50% inactivation [4]: sulbutiamine was two- and three-fold more effective than rabeprazole and omeprazole, respectively

B1: EiTIM (triosephosphate isomerase of E. intestinalis) (Encephalitozoon intestinalis ATCC 50506) (protein)
chain: T1 sequence (E0SA87 1-242)
Km (purified protein): 830 ± 200 µM | kcat (purified protein): 1680 s⁻¹ | kcat/Km (purified protein): 2e+06 M⁻¹ s⁻¹
